In PubChem BioAssay AID1259411 (Chemical Carcinogenesis Research Information System (CCRIS), 2018):
Calls of active or inactive are those of the source. The rule behind the calls is not given here.

Tested on: rodent carcinogenicity bioassays, tumor incidence
Test: CCRIS carcinogenicity studies
Outline: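 Archive of carcinogenicity, mutagenicity, tumor promotion and tumor inhibition results drawn from journals, NCI reports and other sources, expert-reviewed; covers 1985-2011 and is no longer updated.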

COc1cc2c(c3oc(=O)c4c(c13)CCC4=O)[C@]1(O)C=CO[C@@H]1O2
carcinogen call (Species: FISH, Strain/Sex: RAINBOW TROUT, Route: ORAL, Dose: 0, 1.5, 7.5, UG/KG DIET FOR 5.5 MO (STUDY DURATION: 5.5 MO), Dose: 0, 1.5, 7.5, UG/KG DIET FOR 5.5 MO (STUDY DURATION: 5.5 MO), Tumor Site: Type of Lesion: LIVER: HEPATOMA): active; positive
carcinogen call (Species: RAT, Strain/Sex: F344/MALE, Route: ORAL, Dose: 0, 0.5, 5, 50 PPB IN AGAR BASED SEMISYNTHETIC DIET FOR STUDY DURATION (STUDY DURATION: 21 MO), Dose: 0, 0.5, 5, 50 PPB IN AGAR BASED SEMISYNTHETIC DIET FOR STUDY DURATION (STUDY DURATION: 21 MO), Tumor Site: Type of Lesion: LIVER: NEOPLASTIC NODULE, HEPATOCELLULAR CARCINOMA): active; positive
carcinogen call (Species: TROUT, Strain/Sex: MT. SHASTA RAINBOW, Route: ORAL, Dose: 4, 16, 32, 64 PPB IN DIET FOR 12 MO, Dose: 4, 16, 32, 64 PPB IN DIET FOR 12 MO, Tumor Site: Type of Lesion: LIVER: HEPATOMA): active; positive

Cc1ccc(N=Nc2c(O)c(C(=O)O)cc3ccccc23)c(S(=O)(=O)O)c1
carcinogen call (Species: MOUSE, Strain/Sex: ICR/FEMALE, Route: DERMAL, Dose: 0, 1 MG IN 0.1 ML DISTILLED WATER 2/WK FOR A MEAN TOTAL DOSE OF 130.6 MG (STUDY DURATION: 18 MO)): inactive; negative
carcinogen call (Species: MOUSE, Strain/Sex: ICR/MALE, Route: DERMAL, Dose: 0, 1 MG IN 0.1 ML DISTILLED WATER 2/WK FOR A MEAN TOTAL DOSE OF 130.6 MG (STUDY DURATION: 18 MO)): inactive; negative

O=C1c2ccccc2C(=O)c2ccccc21
carcinogen call (Species: MOUSE, Strain/Sex: B6C3F1/MALE, Route: DIET, Dose: 0, 833, 2500, 7500 PPM FOR 2 YR (STUDY DURATION: 2 YRS), Dose: 0, 833, 2500, 7500 PPM FOR 2 YR (STUDY DURATION: 2 YRS), Tumor Site: Type of Lesion: LIVER: HEPATOCELLULAR ADENOMA, CARCINOMA OR HEPATOBLASTOMA): active; positive
carcinogen call (Species: RAT, Strain/Sex: F344/N/MALE, Route: DIET, Dose: 0, 469, 938, 1875, 3750 PPM FOR 2 YRS (STUDY DURATION: 2YRS), Dose: 0, 469, 938, 1875, 3750 PPM FOR 2 YRS (STUDY DURATION: 2YRS), Tumor Site: Type of Lesion: KIDNEY: RENAL TUBULE ADENOMA OR CARCINOMA, LIVER: HEPATOCELLULAR ADENOMA): active; positive
carcinogen call (Species: RAT, Strain/Sex: F344/N/MALE, Route: DIET, Dose: 0, 469, 938, 1875, 3750 PPM FOR 2 YRS (STUDY DURATION: 2YRS), Dose: 0, 469, 938, 1875, 3750 PPM FOR 2 YRS (STUDY DURATION: 2YRS), Tumor Site: Type of Lesion: KIDNEY: RENAL TUBULE ADENOMA, BLADDER: PAPILLOMA): active; positive; no true dose response, p values = 0.01 in these 2 cases; all others no

CCOC(=O)CC(SP(=S)(OC)OC)C(=O)OCC (centres undefined)
carcinogen call (Species: MOUSE, Strain/Sex: B6C3F1/FEMALE, Route: ORAL, Dose: 0, 8000, 16000 PPM IN DIET, Dose: 0, 8000, 16000 PPM IN DIET): inactive; negative
carcinogen call (Species: MOUSE, Strain/Sex: B6C3F1/MALE, Route: ORAL, Dose: 0, 8000, 16000 PPM IN DIET, Dose: 0, 8000, 16000 PPM IN DIET): inactive; negative
carcinogen call (Species: RAT, Strain/Sex: F344/FEMALE, Route: ORAL, Dose: 0, 2000, 4000 PPM IN DIET, Dose: 0, 2000, 4000 PPM IN DIET): inactive; negative
carcinogen call (Species: RAT, Strain/Sex: F344/MALE, Route: ORAL, Dose: 0, 2000, 4000 PPM IN DIET, Dose: 0, 2000, 4000 PPM IN DIET): inactive; negative
carcinogen call (Species: RAT, Strain/Sex: OSBORNE-MENDEL/FEMALE, Route: ORAL, Dose: 0, 4700, 8150 PPM IN DIET, TWA FOR 80 WK, Dose: 0, 4700, 8150 PPM IN DIET, TWA FOR 80 WK): inactive; negative
carcinogen call (Species: RAT, Strain/Sex: OSBORNE-MENDEL/MALE, Route: ORAL, Dose: 0, 4700, 8150 PPM IN DIET, TWA FOR 80 WK, Dose: 0, 4700, 8150 PPM IN DIET, TWA FOR 80 WK): inactive; negative

CCNC(=O)N(CCO)N=O
carcinogen call (Species: RAT, Strain/Sex: F344/FEMALE, Route: INTRAVESICULAR, Dose: 0, 3.6 MG 2/WK FOR 30 WK (STUDY DURATION: LIFETIME), Tumor Site: Type of Lesion: BLADDER: TUMOR, UTERUS: TUMOR): active; positive
carcinogen call (Species: RAT, Strain/Sex: F344/FEMALE, Route: ORAL, Dose: 0, 37, 74 MG/L IN DRINKING WATER 5 D/WK FOR 30 WK (STUDY DURATION: LIFETIME), Dose: 0, 37, 74 MG/L IN DRINKING WATER 5 D/WK FOR 30 WK (STUDY DURATION: LIFETIME), Tumor Site: Type of Lesion: MAMMARY GLAND: CARCINOMA): active; positive
carcinogen call (Species: RAT, Strain/Sex: F344/MALE, Route: GAVAGE, Dose: 0, 3.6 MG IN 0.2 ML ETHYL ACETATE/CORN OIL (1:1) 2/WK FOR 31 WK (TOTAL DOSE: 223 MG) (STUDY DURATION: 80 WK), Tumor Site: Type of Lesion: LIVER: CARCINOMA, LUNG: CARCINOMA OR ADENOMA, BRAIN: TUMORS, THYROID: CARCINOMA OR ADENOMA, PERITONEUM: MESOTHELIOMA, Tumor Site: Type of Lesion: LIVER: CARCINOMA, LUNG: CARCINOMA OR ADENOMA, BRAIN: TUMORS, THYROID: CARCINOMA OR ADENOMA, PERITONEUM: MESOTHELIOMA): active; positive
carcinogen call (Species: RAT, Strain/Sex: F344/MALE, Route: ORAL, Dose: 0, 37, 74 MG/L IN DRINKING WATER 5 D/WK FOR 30 WK (STUDY DURATION: LIFETIME), Dose: 0, 37, 74 MG/L IN DRINKING WATER 5 D/WK FOR 30 WK (STUDY DURATION: LIFETIME), Tumor Site: Type of Lesion: LIVER: TUMOR, LUNG: TUMOR, THYROID: FOLLICULAR TUMOR, MESOTHELIUM: TUMOR, NERVOUS SYSTEM: TUMOR, SKIN: TUMOR, Tumor Site: Type of Lesion: LIVER: TUMOR, LUNG: TUMOR, THYROID: FOLLICULAR TUMOR, MESOTHELIUM: TUMOR, NERVOUS SYSTEM: TUMOR, SKIN: TUMOR): active; positive

COC1=CC(=O)C[C@@H](C)[C@]12Oc1c(Cl)c(OC)cc(OC)c1C2=O
carcinogen call (Species: MOUSE, Strain/Sex: CD-1/MALE,FEMALE, Route: ORAL, Dose: 1% IN DIET FOR 12 TO 16 MO, Tumor Site: Type of Lesion: LIVER: HEPATOMA): active; positive
carcinogen call (Species: MOUSE, Strain/Sex: ICR/MALE, Route: SUBCUTANEOUS, Dose: 0.5, 0.5, 1.0 OR 1.0 MG SUSPENDED IN TRICAPRYLIN (3 MG/ANIMAL, TOTAL DOSE) ON DAYS 1, 7, 14 AND 21 OF AGE, Tumor Site: Type of Lesion: LIVER: HEPATOMA): active; positive

OO
carcinogen call (Species: MOUSE, Strain/Sex: C57BL/MALE,FEMALE, Route: ORAL, Dose: 0, 0.1%, 0.4% IN DRINKING WATER (STUDY DURATION: 108 WK), Dose: 0, 0.1%, 0.4% IN DRINKING WATER (STUDY DURATION: 108 WK), Tumor Site: Type of Lesion: DUODENUM: ADENOMA, ADENOCARCINOMA): active; positive

O=C1OC2(c3ccccc31)c1cc(Br)c(O)c(Br)c1Oc1c2cc(Br)c(O)c1Br
carcinogen call (Species: MOUSE, Strain/Sex: ICR/FEMALE, Route: DERMAL, Dose: 0, 1 MG IN 0.1 ML DISTILLED WATER 2/WK FOR A MEAN TOTAL DOSE OF 140.1 MG (STUDY DURATION: 18 MO)): inactive; negative
carcinogen call (Species: MOUSE, Strain/Sex: ICR/MALE, Route: DERMAL, Dose: 0, 1 MG IN 0.1 ML DISTILLED WATER 2/WK FOR A MEAN TOTAL DOSE OF 140.1 MG (STUDY DURATION: 18 MO)): inactive; negative

C=C(C)[C@H]1Cc2c(ccc3c2O[C@@H]2COc4cc(OC)c(OC)cc4[C@@H]2C3=O)O1
carcinogen call (Species: MOUSE, Strain/Sex: B6C3F1/FEMALE, Route: ORAL, Dose: 0, 600, 1200 PPM IN DIET FOR 103 WK (STUDY DURATION: 105 WK), Dose: 0, 600, 1200 PPM IN DIET FOR 103 WK (STUDY DURATION: 105 WK)): inactive; negative
carcinogen call (Species: MOUSE, Strain/Sex: B6C3F1/MALE, Route: ORAL, Dose: 0, 600, 1200 PPM IN DIET FOR 103 WK (STUDY DURATION: 105 WK), Dose: 0, 600, 1200 PPM IN DIET FOR 103 WK (STUDY DURATION: 105 WK)): inactive; negative
carcinogen call (Species: RAT, Strain/Sex: F344/FEMALE, Route: ORAL, Dose: 0, 38, 75 PPM IN DIET FOR 103 WK (STUDY DURATION: 105 WK), Dose: 0, 38, 75 PPM IN DIET FOR 103 WK (STUDY DURATION: 105 WK)): inactive; negative
carcinogen call (Species: RAT, Strain/Sex: F344/MALE, Route: ORAL, Dose: 0, 38, 75 PPM IN DIET FOR 103 WK (STUDY DURATION: 105 WK), Dose: 0, 38, 75 PPM IN DIET FOR 103 WK (STUDY DURATION: 105 WK), Tumor Site: Type of Lesion: PARATHYROID GLAND: ADENOMA): equivocal
carcinogen call (Species: RAT, Strain/Sex: WISTAR/FEMALE, Route: INTRAPERITONEAL, Dose: 0, 1, 2 MG/KG IN SUNFLOWER OIL 5 D/WK FOR 8 WK (STUDY DURATION: 18 MO), Dose: 0, 1, 2 MG/KG IN SUNFLOWER OIL 5 D/WK FOR 8 WK (STUDY DURATION: 18 MO)): inactive; negative
carcinogen call (Species: RAT, Strain/Sex: WISTAR/FEMALE, Route: INTRAPERITONEAL, Dose: 0, 1, 2 MG/KG IN SUNFLOWER OIL/CHLOROFORM (9:1) 5 D/WK FOR 8 WK (STUDY DURATION: 18 MO), Dose: 0, 1, 2 MG/KG IN SUNFLOWER OIL/CHLOROFORM (9:1) 5 D/WK FOR 8 WK (STUDY DURATION: 18 MO)): inactive; negative
